# What was measured:
# Type in all cases: functional
# [1] = tested on: Cyperus; test: Pre-emergence herbicidal activity against Cyperus in tomato field assessed as number of weeds at 4.56 kg/ha applied through drip lines/backpack-spray on week 3 to 4 before transplanting measured 7 weeks after treatment (reference value: 3 plants/m2)
# [2] = tested on: Poaceae; test: Pre-emergence herbicidal activity against Poaceae (grass family) in tomato field assessed as number of weeds at 4.56 kg/ha applied through drip lines/backpack-spray on week 3 to 4 before transplanting measured 7 weeks after treatment (reference value: 6 plants/m2)
# [3] = tested on: Eleusine indica; test: Pre-emergence herbicidal activity against Eleusine indica in tomato field assessed as number of weeds at 4.56 kg/ha applied through drip lines/backpack-spray on week 3 to 4 before transplanting measured 12 weeks after treatment (reference value: 9 plants/m2)
# [4] = tested on: Digitaria; test: Pre-emergence herbicidal activity against Digitaria spp. in tomato field assessed as number of weeds at 4.56 kg/ha applied through drip lines/backpack-spray on week 3 to 4 before transplanting measured 12 weeks after treatment (reference value: 9 plants/m2)
# [5] = tested on: Echinochloa colona; test: Pre-emergence herbicidal activity against Echinochloa colona in tomato field assessed as number of weeds at 4.56 kg/ha applied through drip lines/backpack-spray on week 3 to 4 before transplanting measured 12 weeks after treatment (reference value: 9 plants/m2)
# [6] = tested on: Portulaca oleracea; test: Pre-emergence herbicidal activity against Portulaca oleracea in tomato field assessed as number of weeds at 4.56 kg/ha applied through drip lines/backpack-spray on week 3 to 4 before transplanting measured 7 weeks after treatment (reference value: 9 plants/m2); details: pooled result: one value given for 8 cell lines, strains, targets or settings
# [7] = tested on: Amaranthus dubius; test: Pre-emergence herbicidal activity against Amaranthus dubius in tomato field assessed as number of weeds at 4.56 kg/ha applied through drip lines/backpack-spray on week 3 to 4 before transplanting measured 12 weeks after treatment (reference value: 9 plants/m2)
# [8] = tested on: Boerhavia erecta; test: Pre-emergence herbicidal activity against Boerhavia erecta in tomato field assessed as number of weeds at 4.56 kg/ha applied through drip lines/backpack-spray on week 3 to 4 before transplanting measured 12 weeks after treatment (reference value: 9 plants/m2)
# [9] = tested on: Corynandra viscosa; test: Pre-emergence herbicidal activity against Cleome viscosa in tomato field assessed as number of weeds at 4.56 kg/ha applied through drip lines/backpack-spray on week 3 to 4 before transplanting measured 12 weeks after treatment (reference value: 9 plants/m2)
# [10] = tested on: Portulaca oleracea; test: Pre-emergence herbicidal activity against Portulaca oleracea in tomato field assessed as number of weeds at 4.56 kg/ha applied through drip lines/backpack-spray on week 3 to 4 before transplanting measured 12 weeks after treatment (reference value: 9 plants/m2)
# [11] = tested on: Trianthema; test: Pre-emergence herbicidal activity against Trianthema spp. in tomato field assessed as number of weeds at 4.56 kg/ha applied through drip lines/backpack-spray on week 3 to 4 before transplanting measured 12 weeks after treatment (reference value: 9 plants/m2)
# [12] = tested on: Cyperus; test: Pre-emergence herbicidal activity against Cyperus in tomato field assessed as number of weeds at 4.56 kg/ha applied through drip lines/backpack-spray on week 3 to 4 before transplanting measured 12 weeks after treatment (reference value: 5 plants/m2)
# [13] = tested on: Poaceae; test: Pre-emergence herbicidal activity against Poaceae (grass family) in tomato field assessed as number of weeds at 4.56 kg/ha applied through drip lines/backpack-spray on week 3 to 4 before transplanting measured 12 weeks after treatment (reference value: 8 plants/m2)
# [14] = tested on: Boerhavia erecta; test: Pre-emergence herbicidal activity against Boerhavia erecta in tomato field assessed as number of extra-large fruits at 4.56 kg/ha applied through drip lines/backpack-spray on week 3 to 4 before transplanting (reference value: 21.3 x 10 '3 ha); details: pooled result: one value given for 8 cell lines, strains, targets or settings
# [15] = tested on: Eleusine indica; test: Pre-emergence herbicidal activity against Eleusine indica in tomato field assessed as total number of fruits at 4.56 kg/ha applied through drip lines/backpack-spray on week 3 to 4 before transplanting (reference value: 49.5 x 10 '3 ha); details: pooled result: one value given for 8 cell lines, strains, targets or settings
# [16] = tested on: Eleusine indica; test: Pre-emergence herbicidal activity against Eleusine indica in tomato field assessed as total fruit weight at 4.56 kg/ha applied through drip lines/backpack-spray on week 3 to 4 before transplanting (reference value: 13.7 t/ha); details: pooled result: one value given for 8 cell lines, strains, targets or settings
# [17] = tested on: Eleusine indica; test: Pre-emergence herbicidal activity against Eleusine indica in tomato field assessed as extra-large fruit weight at 4.56 kg/ha applied through drip lines/backpack-spray on week 3 to 4 before transplanting (reference value: 7.3 t/ha); details: pooled result: one value given for 8 cell lines, strains, targets or settings
# [18] = tested on: Digitaria; test: Pre-emergence herbicidal activity against Digitaria spp. in tomato field assessed as number of weeds at 0.80 kg/ha applied through drip lines/backpack-spray on week 3 to 4 before transplanting measured 12 weeks after treatment (reference value: 9 plants/m2)
# [19] = tested on: Echinochloa colona; test: Pre-emergence herbicidal activity against Echinochloa colona in tomato field assessed as number of weeds at 0.80 kg/ha applied through drip lines/backpack-spray on week 3 to 4 before transplanting measured 12 weeks after treatment (reference value: 9 plants/m2)
# [20] = tested on: Amaranthus dubius; test: Pre-emergence herbicidal activity against Amaranthus dubius in tomato field assessed as number of weeds at 0.80 kg/ha applied through drip lines/backpack-spray on week 3 to 4 before transplanting measured 12 weeks after treatment (reference value: 9 plants/m2)
# [21] = tested on: Boerhavia erecta; test: Pre-emergence herbicidal activity against Boerhavia erecta in tomato field assessed as number of weeds at 0.80 kg/ha applied through drip lines/backpack-spray on week 3 to 4 before transplanting measured 12 weeks after treatment (reference value: 9 plants/m2)
# [22] = tested on: Boerhavia erecta; test: Pre-emergence herbicidal activity against Boerhavia erecta in tomato field assessed as number of weeds at 0.80 kg/ha applied through drip lines/backpack-spray on week 3 to 4 before transplanting measured 7 weeks after treatment (reference value: 9 plants/m2)
# [23] = tested on: Corynandra viscosa; test: Pre-emergence herbicidal activity against Cleome viscosa in tomato field assessed as number of weeds at 0.80 kg/ha applied through drip lines/backpack-spray on week 3 to 4 before transplanting measured 7 weeks after treatment (reference value: 9 plants/m2)
# [24] = tested on: Portulaca oleracea; test: Pre-emergence herbicidal activity against Portulaca oleracea in tomato field assessed as number of weeds at 0.80 kg/ha applied through drip lines/backpack-spray on week 3 to 4 before transplanting measured 7 weeks after treatment (reference value: 9 plants/m2)
# [25] = tested on: Trianthema; test: Pre-emergence herbicidal activity against Trianthema spp. in tomato field assessed as number of weeds at 0.80 kg/ha applied through drip lines/backpack-spray on week 3 to 4 before transplanting measured 7 weeks after treatment (reference value: 9 plants/m2)
# [26] = tested on: Cyperus; test: Pre-emergence herbicidal activity against Cyperus in tomato field assessed as number of weeds at 0.80 kg/ha applied through drip lines/backpack-spray on week 3 to 4 before transplanting measured 7 weeks after treatment (reference value: 3 plants/m2)
# [27] = tested on: Poaceae; test: Pre-emergence herbicidal activity against Poaceae (grass family) in tomato field assessed as number of weeds at 0.80 kg/ha applied through drip lines/backpack-spray on week 3 to 4 before transplanting measured 7 weeks after treatment (reference value: 6 plants/m2)
# [28] = tested on: Corynandra viscosa; test: Pre-emergence herbicidal activity against Cleome viscosa in tomato field assessed as number of weeds at 0.80 kg/ha applied through drip lines/backpack-spray on week 3 to 4 before transplanting measured 12 weeks after treatment (reference value: 9 plants/m2)
# [29] = tested on: Portulaca oleracea; test: Pre-emergence herbicidal activity against Portulaca oleracea in tomato field assessed as number of weeds at 0.80 kg/ha applied through drip lines/backpack-spray on week 3 to 4 before transplanting measured 12 weeks after treatment (reference value: 9 plants/m2)
# [30] = tested on: Trianthema; test: Pre-emergence herbicidal activity against Trianthema spp. in tomato field assessed as number of weeds at 0.80 kg/ha applied through drip lines/backpack-spray on week 3 to 4 before transplanting measured 12 weeks after treatment (reference value: 9 plants/m2)
# [31] = tested on: Cyperus; test: Pre-emergence herbicidal activity against Cyperus in tomato field assessed as number of weeds at 0.80 kg/ha applied through drip lines/backpack-spray on week 3 to 4 before transplanting measured 12 weeks after treatment (reference value: 5 plants/m2)
# [32] = tested on: Poaceae; test: Pre-emergence herbicidal activity against Poaceae (grass family) in tomato field assessed as number of weeds at 0.80 kg/ha applied through drip lines/backpack-spray on week 3 to 4 before transplanting measured 12 weeks after treatment (reference value: 8 plants/m2)
# [33] = tested on: Eleusine indica; test: Pre-emergence herbicidal activity against Eleusine indica in tomato field assessed as number of weeds at 0.80 kg/ha applied through drip lines/backpack-spray on week 3 to 4 before transplanting measured 7 weeks after treatment (reference value: 9 plants/m2)
# [34] = tested on: Digitaria; test: Pre-emergence herbicidal activity against Digitaria spp. in tomato field assessed as number of weeds at 0.80 kg/ha applied through drip lines/backpack-spray on week 3 to 4 before transplanting measured 7 weeks after treatment (reference value: 9 plants/m2)
# [35] = tested on: Echinochloa colona; test: Pre-emergence herbicidal activity against Echinochloa colona in tomato field assessed as number of weeds at 0.80 kg/ha applied through drip lines/backpack-spray on week 3 to 4 before transplanting measured 7 weeks after treatment (reference value: 9 plants/m2)
# [36] = tested on: Amaranthus dubius; test: Pre-emergence herbicidal activity against Amaranthus dubius in tomato field assessed as number of weeds at 0.80 kg/ha applied through drip lines/backpack-spray on week 3 to 4 before transplanting measured 7 weeks after treatment (reference value: 9 plants/m2)
# [37] = tested on: Eleusine indica; test: Pre-emergence herbicidal activity against Eleusine indica in tomato field assessed as total fruit weight at 0.80 kg/ha applied through drip lines/backpack-spray on week 3 to 4 before transplanting (reference value: 13.7 t/ha); details: pooled result: one value given for 8 cell lines, strains, targets or settings
# [38] = tested on: Eleusine indica; test: Pre-emergence herbicidal activity against Eleusine indica in tomato field assessed as number of weeds at 0.80 kg/ha applied through drip lines/backpack-spray on week 3 to 4 before transplanting measured 12 weeks after treatment (reference value: 9 plants/m2)
# [39] = tested on: Eleusine indica; test: Pre-emergence herbicidal activity against Eleusine indica in tomato field assessed as extra-large fruit weight at 0.80 kg/ha applied through drip lines/backpack-spray on week 3 to 4 before transplanting (reference value: 7.3 t/ha)
# [40] = tested on: Digitaria; test: Pre-emergence herbicidal activity against Digitaria spp. in tomato field assessed as extra-large fruit weight at 0.80 kg/ha applied through drip lines/backpack-spray on week 3 to 4 before transplanting (reference value: 7.3 t/ha)
# [41] = tested on: Echinochloa colona; test: Pre-emergence herbicidal activity against Echinochloa colona in tomato field assessed as extra-large fruit weight at 0.80 kg/ha applied through drip lines/backpack-spray on week 3 to 4 before transplanting (reference value: 7.3 t/ha)
# [42] = tested on: Amaranthus dubius; test: Pre-emergence herbicidal activity against Amaranthus dubius in tomato field assessed as extra-large fruit weight at 0.80 kg/ha applied through drip lines/backpack-spray on week 3 to 4 before transplanting (reference value: 7.3 t/ha)
# [43] = tested on: Trianthema; test: Pre-emergence herbicidal activity against Trianthema spp. in tomato field assessed as extra-large fruit weight at 0.80 kg/ha applied through drip lines/backpack-spray on week 3 to 4 before transplanting (reference value: 7.3 t/ha)
# [44] = tested on: Eleusine indica; test: Pre-emergence herbicidal activity against Eleusine indica in tomato field assessed as total number of fruits at 0.80 kg/ha applied through drip lines/backpack-spray on week 3 to 4 before transplanting (reference value: 49.5 x 10 '3 ha); details: pooled result: one value given for 8 cell lines, strains, targets or settings
# [45] = tested on: Eleusine indica; test: Pre-emergence herbicidal activity against Eleusine indica in tomato field assessed as number of extra-large fruits at 0.80 kg/ha applied through drip lines/backpack-spray on week 3 to 4 before transplanting (reference value: 21.3 x 10 '3 ha); details: pooled result: one value given for 8 cell lines, strains, targets or settings
# [46] = tested on: Boerhavia erecta; test: Pre-emergence herbicidal activity against Boerhavia erecta in tomato field assessed as extra-large fruit weight at 0.80 kg/ha applied through drip lines/backpack-spray on week 3 to 4 before transplanting (reference value: 7.3 t/ha)
# [47] = tested on: Corynandra viscosa; test: Pre-emergence herbicidal activity against Cleome viscosa in tomato field assessed as extra-large fruit weight at 0.80 kg/ha applied through drip lines/backpack-spray on week 3 to 4 before transplanting (reference value: 7.3 t/ha)
# [48] = tested on: Portulaca oleracea; test: Pre-emergence herbicidal activity against Portulaca oleracea in tomato field assessed as extra-large fruit weight at 0.80 kg/ha applied through drip lines/backpack-spray on week 3 to 4 before transplanting (reference value: 7.3 t/ha)
compound,measurement,setting,value
CCCCN(CC)C(=O)SCCC [PEBULATE],Activity,[1],4 /m2
same,Activity,[2],4 /m2
same,Activity,[3],8 /m2
same,Activity,[4],8 /m2
same,Activity,[5],8 /m2
same,Activity,[6],14 /m2
same,Activity,[7],8 /m2
same,Activity,[8],8 /m2
same,Activity,[9],8 /m2
same,Activity,[10],8 /m2
same,Activity,[11],8 /m2
same,Activity,[12],6 /m2
same,Activity,[13],5 /m2
same,fruit count,[14],24.5 10³ fruits/ha
same,fruit number,[15],55 10^3 fruits/ha
same,Activity,[16],15.3 tons/ha
same,Activity,[17],8.4 tons/ha
CCCN(CCC)c1c([N+](=O)[O-])cc(C(F)(F)F)cc1[N+](=O)[O-] [TRIFLURALIN],Activity,[18],7 /m2
same,Activity,[19],7 /m2
same,Activity,[20],7 /m2
same,Activity,[21],7 /m2
same,Activity,[22],10 /m2
same,Activity,[23],10 /m2
same,Activity,[24],10 /m2
same,Activity,[25],10 /m2
same,Activity,[26],5 /m2
same,Activity,[27],6 /m2
same,Activity,[28],7 /m2
same,Activity,[29],7 /m2
same,Activity,[30],7 /m2
same,Activity,[31],8 /m2
same,Activity,[32],5 /m2
same,Activity,[33],10 /m2
same,Activity,[34],10 /m2
same,Activity,[35],10 /m2
same,Activity,[36],10 /m2
same,Activity,[37],15.9 tons/ha
same,Activity,[38],7 /m2
same,Activity,[39],9.6 tons/ha
same,Activity,[40],9.6 tons/ha
same,Activity,[41],9.6 tons/ha
same,Activity,[42],9.6 tons/ha
same,Activity,[43],9.6 tons/ha
same,fruit number,[44],59.5 10^3 fruits/ha
same,fruit count,[45],29.5 10^3 fruits/ha
same,Activity,[46],9.6 tons/ha
same,Activity,[47],9.6 tons/ha
same,Activity,[48],9.6 tons/ha

# — ChEMBL document CHEMBL3044556, “Managing weeds with drip-applied herbicides in tomato” (2008)
